Tested on: 292921-168-R-J2-PDC KRAS tumor spheroid viability
Experiment: Anticancer human tumor 292921-168-R-J2-PDC patient-derived pancreatic carcinoma cell line growth inhibition [KRAS2]
Settings: spheroids with HUVEC and MSC; for IC50: curve of first compound; for viability, T/C: stronger effect = lower value
Method in brief: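 Combination screen of spheroid viability in tumor-cell co-cultures with endothelial (HUVEC) and mesenchymal stem cell stroma. Each agent was tested in half-log dilutions, topping at clinical Cmax or at 10 microM without a known Cmax.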

[1] = second compound 0.1 µM, first compound 0.000316 µM
[2] = second compound 0.1 µM, first compound 0.001 µM
[3] = second compound 0.1 µM, first compound 0.00316 µM
[4] = second compound 0.1 µM, first compound 0.01 µM
[5] = second compound 0.1 µM, first compound 0.0316 µM
[6] = second compound 0.316 µM, first compound 0.000316 µM
[7] = second compound 0.316 µM, first compound 0.001 µM
[8] = second compound 0.316 µM, first compound 0.00316 µM
[9] = second compound 0.316 µM, first compound 0.01 µM
[10] = second compound 0.316 µM, first compound 0.0316 µM
[11] = second compound 1 µM, first compound 0.000316 µM
[12] = second compound 1 µM, first compound 0.001 µM
[13] = second compound 1 µM, first compound 0.00316 µM
[14] = second compound 1 µM, first compound 0.01 µM
[15] = second compound 1 µM, first compound 0.0316 µM
[16] = second compound 3.16 µM, first compound 0.000316 µM
[17] = second compound 3.16 µM, first compound 0.001 µM
[18] = second compound 3.16 µM, first compound 0.00316 µM
[19] = second compound 3.16 µM, first compound 0.01 µM
[20] = second compound 3.16 µM, first compound 0.0316 µM
[21] = second compound 10 µM, first compound 0.000316 µM
[22] = second compound 10 µM, first compound 0.001 µM
[23] = second compound 10 µM, first compound 0.00316 µM
[24] = second compound 10 µM, first compound 0.01 µM
[25] = second compound 10 µM, first compound 0.0316 µM
[26] = second compound 0.1 µM, first compound 0.1 µM
[27] = second compound 0.1 µM, first compound 0.316 µM
[28] = second compound 0.1 µM, first compound 1 µM
[29] = second compound 0.1 µM, first compound 3.16 µM
[30] = second compound 0.1 µM, first compound 10 µM
[31] = second compound 0.316 µM, first compound 0.1 µM
[32] = second compound 0.316 µM, first compound 0.316 µM
[33] = second compound 0.316 µM, first compound 1 µM
[34] = second compound 0.316 µM, first compound 3.16 µM
[35] = second compound 0.316 µM, first compound 10 µM
[36] = second compound 1 µM, first compound 0.1 µM
[37] = second compound 1 µM, first compound 0.316 µM
[38] = second compound 1 µM, first compound 1 µM
[39] = second compound 1 µM, first compound 3.16 µM
[40] = second compound 1 µM, first compound 10 µM
[41] = second compound 3.16 µM, first compound 0.1 µM
[42] = second compound 3.16 µM, first compound 0.316 µM
[43] = second compound 3.16 µM, first compound 1 µM
[44] = second compound 3.16 µM, first compound 3.16 µM
[45] = second compound 3.16 µM, first compound 10 µM
[46] = second compound 10 µM, first compound 0.1 µM
[47] = second compound 10 µM, first compound 0.316 µM
[48] = second compound 10 µM, first compound 1 µM
[49] = second compound 10 µM, first compound 3.16 µM
[50] = second compound 10 µM, first compound 10 µM
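Further: drug exposure lasted seven days after spheroids formed for three days.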
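Wherever viability, T/C is given: percent of DMSO vehicle control viability which is 100%.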

`CC(=O)Nc1cccc(-n2c(=O)n(C3CC3)c(=O)c3c(Nc4ccc(I)cc4F)n(C)c(=O)c(C)c32)c1` + COc1cc2nc(C)nc(NC(C)c3cc(N)cc(C(F)(F)F)c3)c2cc1OC1CCOC1 gave an IC50 (second compound 0.1 µM) of 0.23 nM, an IC50 (second compound 0.316 µM) of 0.165 nM and an IC50 (second compound 1 µM) of 0.119 nM. The IC50 (second compound 3.16 µM) was 0.105 nM, the IC50 (second compound 10 µM) was less than 0.1 nM and the viability, T/C (second compound 0.1 µM, first compound 0.0001 µM) was 72.3%. It also gave a viability, T/C [1] of 40.4%, a viability, T/C [2] of 25.4% and a viability, T/C [3] of 16.1%. The viability, T/C [4] was 11.3%, the viability, T/C [5] was 8.07% and the viability, T/C (second compound 0.316 µM, first compound 0.0001 µM) was 57.4%. The viability, T/C [6] was 40.9%, the viability, T/C [7] was 22% and the viability, T/C [8] was 15.7%. It also gave a viability, T/C [9] of 12%, a viability, T/C [10] of 8.27% and a viability, T/C (second compound 1 µM, first compound 0.0001 µM) of 53.6%. For the same compound, the viability, T/C [11] was 31.5%, the viability, T/C [12] was 20.9% and the viability, T/C [13] was 13.8%. The viability, T/C [14] was 11.5%, the viability, T/C [15] was 8.01% and the viability, T/C (second compound 3.16 µM, first compound 0.0001 µM) was 51.5%. It also gave a viability, T/C [16] of 29.2%, a viability, T/C [17] of 19.1% and a viability, T/C [18] of 12.4%. It also gave a viability, T/C [19] of 10.3%, a viability, T/C [20] of 8.26% and a viability, T/C (second compound 10 µM, first compound 0.0001 µM) of 18.4%. For the same compound, the viability, T/C [21] was 14.6%, the viability, T/C [22] was 15% and the viability, T/C [23] was 11.9%. It also gave a viability, T/C [24] of 8.42% and a viability, T/C [25] of 8.34%.

For `COC(=O)c1ccc2c(C(=Nc3ccc(N(C)C(=O)CN4CCN(C)CC4)cc3)c3ccccc3)c(O)[nH]c2c1` + COc1cc2nc(C)nc(NC(C)c3cc(N)cc(C(F)(F)F)c3)c2cc1OC1CCOC1, the IC50 (second compound 0.1 µM) was 856 nM, the IC50 (second compound 0.316 µM) was 620 nM and the IC50 (second compound 1 µM) was 382 nM. It also gave an IC50 (second compound 3.16 µM) of 221 nM, an IC50 (second compound 10 µM) of 31.9 nM and a viability, T/C [5] of 115%. It also gave a viability, T/C [26] of 103%, a viability, T/C [27] of 83% and a viability, T/C [28] of 49.4%. For the same compound, the viability, T/C [29] was 4.07%, the viability, T/C [30] was 0.28% and the viability, T/C [10] was 95.9%. For the same compound, the viability, T/C [31] was 96.6%, the viability, T/C [32] was 62.1% and the viability, T/C [33] was 37.3%. The viability, T/C [34] was 19.2%, the viability, T/C [35] was 0.44% and the viability, T/C [15] was 103%. For the same compound, the viability, T/C [36] was 97.5%, the viability, T/C [37] was 47% and the viability, T/C [38] was 29.5%. For the same compound, the viability, T/C [39] was 4.33%, the viability, T/C [40] was 0.36% and the viability, T/C [20] was 83.9%. It also gave a viability, T/C [41] of 61.1%, a viability, T/C [42] of 46.5% and a viability, T/C [43] of 25.1%. The viability, T/C [44] was 6.39%, the viability, T/C [45] was 0.44% and the viability, T/C [25] was 49%. It also gave a viability, T/C [46] of 44.2%, a viability, T/C [47] of 22.8% and a viability, T/C [48] of 12.8%. For the same compound, the viability, T/C [49] was 1.24% and the viability, T/C [50] was 0.24%.

With `CCN1CCN(Cc2ccc(Nc3ncc(F)c(-c4cc(F)c5nc(C)n(C(C)C)c5c4)n3)nc2)CC1` + COc1cc2nc(C)nc(NC(C)c3cc(N)cc(C(F)(F)F)c3)c2cc1OC1CCOC1 the IC50 (second compound 0.1 µM) was 20.7 nM, the IC50 (second compound 0.316 µM) was 13.2 nM and the IC50 (second compound 1 µM) was 9.76 nM. It also gave an IC50 (second compound 3.16 µM) of 3.28 nM, an IC50 (second compound 10 µM) of less than 3.16 nM and a viability, T/C [3] of 74.7%. For the same compound, the viability, T/C [4] was 60.1%, the viability, T/C [5] was 42.2% and the viability, T/C [26] was 36%. It also gave a viability, T/C [27] of 29.8%, a viability, T/C [28] of 22.2% and a viability, T/C [8] of 67.4%. It also gave a viability, T/C [9] of 54.1%, a viability, T/C [10] of 39.2% and a viability, T/C [31] of 32.8%. It also gave a viability, T/C [32] of 28.4%, a viability, T/C [33] of 22.1% and a viability, T/C [13] of 60.7%. The viability, T/C [14] was 49.7%, the viability, T/C [15] was 40.3% and the viability, T/C [36] was 30.8%. The viability, T/C [37] was 25.7%, the viability, T/C [38] was 21.3% and the viability, T/C [18] was 51%. For the same compound, the viability, T/C [19] was 35.6%, the viability, T/C [20] was 30.8% and the viability, T/C [41] was 22.9%. For the same compound, the viability, T/C [42] was 22%, the viability, T/C [43] was 18.6% and the viability, T/C [23] was 22.8%. For the same compound, the viability, T/C [24] was 15.9%, the viability, T/C [25] was 14.7% and the viability, T/C [46] was 14.8%. The viability, T/C [47] was 12.2% and the viability, T/C [48] was 0.58%.

`CN(C)C/C=C/C(=O)Nc1cc2c(Nc3ccc(F)c(Cl)c3)ncnc2cc1O[C@H]1CCOC1` + COc1cc2nc(C)nc(NC(C)c3cc(N)cc(C(F)(F)F)c3)c2cc1OC1CCOC1 showed an IC50 (second compound 0.1 µM) greater than 100 nM, an IC50 (second compound 0.316 µM) greater than 100 nM and an IC50 (second compound 1 µM) greater than 100 nM. For the same compound, the IC50 (second compound 3.16 µM) was 30.4 nM, the IC50 (second compound 10 µM) was 1.18 nM and the viability, T/C [1] was 94%. The viability, T/C [2] was 91.5%, the viability, T/C [3] was 84.8% and the viability, T/C [4] was 88.7%. It also gave a viability, T/C [5] of 85.4%, a viability, T/C [26] of 74.5% and a viability, T/C [6] of 87.5%. It also gave a viability, T/C [7] of 74.7%, a viability, T/C [8] of 72.7% and a viability, T/C [9] of 73.5%. The viability, T/C [10] was 66.1%, the viability, T/C [31] was 58.1% and the viability, T/C [11] was 87%. The viability, T/C [12] was 82.2%, the viability, T/C [13] was 83.7% and the viability, T/C [14] was 86.8%. It also gave a viability, T/C [15] of 84.9%, a viability, T/C [36] of 75.2% and a viability, T/C [16] of 62.8%. It also gave a viability, T/C [17] of 46.8%, a viability, T/C [18] of 57% and a viability, T/C [19] of 54.9%. It also gave a viability, T/C [20] of 52.5%, a viability, T/C [41] of 44.5% and a viability, T/C [21] of 50%. It also gave a viability, T/C [22] of 52.2%, a viability, T/C [23] of 50.7% and a viability, T/C [24] of 45.5%. For the same compound, the viability, T/C [25] was 45.6% and the viability, T/C [46] was 47.8%.

In the case of `COC(=O)c1ccc2c(C(=Nc3ccc(N(C)C(=O)CN4CCN(C)CC4)cc3)c3ccccc3)c(O)[nH]c2c1` + C=CC(=O)N1CCN(c2nc(=O)n(-c3c(C)ccnc3C(C)C)c3nc(-c4c(O)cccc4F)c(F)cc23)C(C)C1, the IC50 (second compound 0.1 µM) is reported as less than 31.6 nM, the IC50 (second compound 0.316 µM) is reported as less than 31.6 nM and the IC50 (second compound 1 µM) is reported as 58.8 nM. For the same compound, the IC50 (second compound 3.16 µM) was 41.8 nM, the IC50 (second compound 10 µM) was less than 31.6 nM and the viability, T/C [5] was 44.2%. It also gave a viability, T/C [26] of 39.2%, a viability, T/C [27] of 30.9% and a viability, T/C [28] of 18.8%. It also gave a viability, T/C [29] of 11.9%, a viability, T/C [30] of 0.29% and a viability, T/C [10] of 48.4%. The viability, T/C [31] was 40.6%, the viability, T/C [32] was 25.3% and the viability, T/C [33] was 20.1%. It also gave a viability, T/C [34] of 5.83%, a viability, T/C [35] of 0.17% and a viability, T/C [15] of 56.8%. For the same compound, the viability, T/C [36] was 43.7%, the viability, T/C [37] was 29.2% and the viability, T/C [38] was 15.8%. It also gave a viability, T/C [39] of 2.31%, a viability, T/C [40] of 0.19% and a viability, T/C [20] of 52.8%. The viability, T/C [41] was 41.5%, the viability, T/C [42] was 25.7% and the viability, T/C [43] was 16.9%. For the same compound, the viability, T/C [44] was 2.53%, the viability, T/C [45] was 0.13% and the viability, T/C [25] was 38.1%. For the same compound, the viability, T/C [46] was 36.4%, the viability, T/C [47] was 24.8% and the viability, T/C [48] was 19.2%. For the same compound, the viability, T/C [49] was 3.45% and the viability, T/C [50] was 0.21%.
